Common to all, as to format: functional
The test system of one assay is SNB-75. Description: Cytotoxicity against human SNB75 cells.
Assay [1] in a line: Cytotoxicity against human Hs 578T cells.
Another assay concerns M14. Description: Cytotoxicity against human M14 cells.

Molecules are shown by their SMILES.

On to `C=C(C)[C@H]1CC/C(C)=C/CC[C@@]2(C)O[C@@H]2CC/C(COC(C)=O)=C\[C@@H]1O` [ASPERDIOL ACETATE], for which the GI50 (usually the concentration at which growth is held to half of that of the control) was 0.625 µM in the assay with SNB-75, 8.28 µM in assay [1] and 8.28 µM in the assay with M14.

These data come from ChEMBL document CHEMBL1158880, “New cembranoid diterpenes and a geranylgeraniol derivative from the common Caribbean sea whip Eunicea succinea” (1997).
